“Also recorded” adds a separate entry of the source.
Key:
Type in all cases: cell-based, mouse
[1] = test system: beta-catenin; assay: Nuclear translocation of beta-catenin, immunohistology of fetal lung explants
Protocol: FIG. 8: Nuclear translocation of beta-catenin by Wnt3A in fetal lung explants. The translocation of beta-catenin was determined using immunohistological analysis of histological sections from fetal lung explants (E12.5), cultured for two days in the presence of Wnt3a at a concentration of 0 ng/ml (Panel A); 10 ng/ml (Panel B); 50 ng/ml (Panel C); 250 ng/ml (Panel D); 500 ng/ml (Panel E) and 1000 ng/ml (Panel F).
(§1) The primary antibodies used for the immunohistochemical detection was for beta-catenin; anti beta-catenin IgG, mAb, clone 14 from BD-Transduction Laboratories, for tubulin-beta mAb clone TBN05 (Tub2.1) from Neomarkers, for BrdU; anti-Bromodeoxyuridine (BrdU), mAb clone ZBU30 from Zymed Laboratories Inc.
In order to determine whether Wnt3A actually elevates the Wnt-signaling pathway in these explants, histological sections were stained for beta-catenin, the intracellular factor, which, together with members of the high mobility group (HMG) of transcription factors such as TCF1 and LEF, transducer the Wnt signal to the nucleus.

[2] = test system: mesenchyme and epithelium of fetal lung explants; assay: Apoptosis in lung explants by H/E histology (picnotic nuclei)
Protocol: (§2) The (fetal) murine lung explant culture was generated according to our standard protocol. Briefly, complete lungs or individually dissected lung lobes were isolated from fetal mice and cultured for one to five days in a hanging drop culture system. The Wnt3a polypeptide was administered to the culture medium in different concentrations, ranging from 0 to 4000 ng/ml. The effect of this treatment was monitored by stereomicroscopy. The lung explant cultures were subsequently fixed for 30 minutes in 10% paraformaldehyde (PFA), 30 minutes in 2% PFA and 30 minutes in 4% PFA. After fixation, the lung explants were dehydrated through an increasing series of 2-isopropanol and subsequently embedded in paraffin. For the histological analysis, 4 μm thick sections were cut and stained with Hematoxilin and Eosin using standard techniques.
In order to determine the concentration range in which the Wnt3a polypeptide is effective, total lung explants were cultured in the presence of Wnt3a in a range of 0 ng/ml, 500 ng/ml, 750 ng/ml, 1000 ng/ml, 2000 ng/ml and 4000 ng/ml (FIG. 2, Panels A-R).
After two days of culture, these lung explants were fixed and embedded in paraffin for immunohistological analysis.
To more exactly determine the concentration of Wnt3a that is effective upon lung development, differentiation and apoptosis, fetal lung explants were cultured for a longer period (four days) in the presence of lower concentrations of Wnt3a, i.e., 0 ng/ml, 4 ng/ml, 20 ng/ml, 100 ng/ml and 500 ng/ml (FIG. 4, Panels A-O).

[3] = test system: fetal lung explants; assay: Fetal murine lung explant culture (hanging drop), stereomicroscopy and H/E histology of differentiation
Text: To provide proof of evidence, an in vitro explant lung culture (obtained from a mouse) is used. Generation of new alveolar tissue in patients is stimulated by activation or re-activation of alveolar bud formation. Growth and branching of alveolar buds, followed by transformation into alveolar ducts, sacs and pouches, results in the establishment of pulmonary acini.
As a proof of evidence, it is, therefore, shown that treatment with selected molecules involved in a Wnt pathway inhibits the differentiation process of alveolar differentiation. Inhibition of this differentiation process is achieved by applying a purified Wnt3a polypeptide to an in vitro lung explant culture of 13-day-old (E13) mouse embryos.
as §2
As a source for Wnt3a, recombinant mouse Wnt3a from R&D Systems (catalog nr. 1324-WN, R&D Systems, Inc. Minneapolis USA) was used. As culture medium, DMEM/HAM's F12 (1:1) from Biochrom AG, catalog nr. FG 4815, was used.

[4] = test system: fetal lung explants (E12.5); assay: Eight-day fetal lung explant culture, histology and tubulin-IV immunostaining (final lung differentiation)
Protocol: FIG. 7: The effect of Wnt3A on the final lung differentiation. The lung explants were cultured for eight days in the presence of 0 ng/ml (Panels A and B), 10 ng/ml (Panel C), 50 ng/ml (Panel D), 250 ng/ml (Panel E) and 500 ng/ml Wnt3A (Panel F). After embedding, histological sections were stained with a tubulin-IV antibody to mark ciliated bronchial epithelium. In addition, the sections were counterstained with Haematoxylin and Alcian Blue, which stained the mucus secreted from the bronchial epithelium and the cartilage associated with the tracheal epithelium.
as §1
To further determine the effect of Wnt3A upon the development and differentiation of the lung over time, fetal lung explants of isolated E12.5 were cultured with 0, 10, 50, 250, and 500 ng/ml Wnt3A for eight days. Two hours before the fixation of the lung explants, BrdU was added to the culture medium, which is incorporated in newly synthesized DNA of active proliferating cells. After the different time points, the lung explants were processed for histological analysis and immuno staining of marker genes.

Wnt3a
nuclear beta-catenin ([1]; 10-1000 ng/ml, within the first two days, mesenchymal cells around lung buds): dosage-dependent increase in nuclear beta-catenin
nuclear beta-catenin ([1]; 250 and 500 ng/ml, two days): maximal; also recorded: strong induction of nuclear beta-catenin
nuclear beta-catenin ([1]; four- and eight-day cultures): had disappeared
apoptosis in the epithelium ([2]; 750 ng/ml, two days): no sign of apoptosis whatsoever
apoptosis in the mesenchyme ([2]; 750 ng/ml, two days): clearly detectable but not yet abundant
apoptosis in the epithelium ([2]; 1000 ng/ml, five days): contained no apoptotic cells
apoptosis in the mesenchyme ([2]; 1000 ng/ml, five days): most of the mesenchymal cells surrounding the epithelium displayed picnotic nuclei; also recorded: massive induction of apoptosis in the mesenchyme
apoptosis in the epithelium ([2]; 1000 ng/ml, two days): not detectable
apoptosis in the epithelium ([2]; between 100 and 500 ng/ml, four days): no sign of apoptosis could be detected
concentration at which apoptosis in the epithelium is induced ([2]; conclusion): higher than 1000 ng/ml
concentration at which apoptosis in the mesenchyme is induced ([2]; conclusion): greater than 100 ng/ml
differentiation of the epithelium ([3]; 500 ng/ml, four days): delayed; also recorded: undifferentiated character of the epithelium
differentiation of the primordial lung epithelium (histology) ([3]; 1000 ng/ml, five-day-old cultures): arrested at a stage comparable to that of the start of the culture (E13); also recorded: strong inhibitory effect on the development and differentiation of the fetal lung; also recorded: arrest of alveolar differentiation
effect on cell viability ([3]; 2000 ng/ml): affects the viability of all cells
effect on lung development (stereomicroscopy) ([3]; 2000 ng/ml and 4000 ng/ml, after one day): deleterious effect on lung development
complete block of differentiation of fetal lung development ([3]; 4, 20, 100 and 500 ng/ml, four days): None of these concentrations was effective in completely blocking the differentiation
lung differentiation (stereomicroscopy) ([3]; E13 lung explants, 1000 ng/ml, after 16 hours): total block of lung differentiation
differentiation and alveolar development (stereomicroscopy) ([3]; E13 lung explants, 1000 ng/ml, five days culture): no significant differentiation and alveolar development could be observed
effects at the level of apoptosis and differentiation compared to control ([3]; between 4 and 20 ng/ml, four days): no clear effects were visible
concentration at which differentiation was strongly retarded with many picnotic cells ([3]; histological examination at day 4): above 100 ng/ml
concentration that does not show clear morphological changes ([3]; lung explants): below 1 ng/ml
effect on lung development (morphology) ([4]; 10 ng/ml, up to eight days): profound effects on lung development
flattening of the primordial epithelium to the type-I cell ([4]; 250 ng/ml, eight days): almost completely suppressed
branching ([4]; 500 ng/ml, after one day): inhibitory effect upon branching
branching ([4]; 500 ng/ml, eight days): still severely suppressed
differentiation of distal epithelium (alveolar and bronchiolar compartments) ([4]; 500 ng/ml, eight days): completely inhibited
proximal structures (tubulin-IV, Haematoxylin and Alcian Blue) ([4]; 500 ng/ml, eight days): consist completely of proximal structures; also recorded: abundance of bronchial epithelium, mucus and cartilage
alveolarization of the distal epithelium / flattened epithelium (alveolar-type-I cells) ([4]; 10 to 250 ng/ml (to 500 ng/ml in FIG. 7), eight days): decreasing alveolarization of the distal epithelium; also recorded: loss of flattened epithelium (alveolar-type-I cells) with increasing dosage

Reference: patent US20100203634A1, “Inhibition of stem cell differentiation, enhancement of proliferation and selective induction of apoptosis by Wnt factors” (DeltaCell B.V., priority 2003, published 2010)
